According to ChEMBL document CHEMBL1201862, “PubChem BioAssay data set” (2004):
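Results reflect a 48-hour exposure of cells in 96-well plates to compound at five concentrations. GI50 is the concentration that inhibits growth by half.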 Active and inactive are the calls of the source. Rule as the data show it: active = GI50 up to about 1.1 µM and inactive = higher.

Columns and labels:
Test in all cases: growth of human tumour cells (NCI), 48 h
OVCAR-5 = test system: OVCAR-5
SK-MEL-2 = test system: SK-MEL-2
A498 = test system: A498
UACC-62 = test system: UACC-62
CAKI-1 = test system: CAKI-1
KM12 = test system: KM12
COLO 205 = test system: COLO 205
HCT-116 = test system: HCT-116
SK-MEL-5 = test system: SK-MEL-5
SNB-19 = test system: SNB-19
RXF 393 = test system: RXF 393
Hs-578T = test system: Hs-578T
PC-3 = test system: PC-3
U-251 = test system: U-251
MDA-MB-435 = test system: MDA-MB-435
LOX IMVI = test system: LOX IMVI
CCRF-CEM = test system: CCRF-CEM
DU-145 = test system: DU-145
RPMI-8226 = test system: RPMI-8226
M14 = test system: M14
SF-268 = test system: SF-268
UACC-257 = test system: UACC-257
SK-MEL-28 = test system: SK-MEL-28
HOP-92 = test system: HOP-92
OVCAR-4 = test system: OVCAR-4
MCF7 = test system: MCF7
SW-620 = test system: SW-620
A549 = test system: A549
K562 = test system: K562
HCC 2998 = test system: HCC 2998
IGROV-1 = test system: IGROV-1
MDA-N = test system: MDA-N
SNB-75 = test system: SNB-75
ACHN = test system: ACHN
OVCAR-8 = test system: OVCAR-8
786-0 = test system: 786-0
NCI-H460 = test system: NCI-H460
NCI-H522 = test system: NCI-H522
MOLT-4 = test system: MOLT-4
HL-60 = test system: HL-60
TK-10 = test system: TK-10
SK-OV-3 = test system: SK-OV-3
HCT-15 = test system: HCT-15
EKVX = test system: EKVX
MDA-MB-231 = test system: MDA-MB-231
SR = test system: SR
HOP-62 = test system: HOP-62
HT-29 = test system: HT-29
NCI-H23 = test system: NCI-H23
T47D = test system: T47D
NCI-H226 = test system: NCI-H226
SF-539 = test system: SF-539
SN12C = test system: SN12C
SF-295 = test system: SF-295
UO-31 = test system: UO-31
Malme-3M = test system: Malme-3M
OVCAR-3 = test system: OVCAR-3
NCI/ADR-RES = test system: NCI/ADR-RES

Measured: GI50

O=[N+]([O-])C(=C1Nc2ccccc2N1)C(Cl)=C(Cl)Cl
active: SNB-75 < 0.01 µM
inactive: OVCAR-5 > 100 µM | SK-MEL-2 > 100 µM | A498 > 100 µM | UACC-62 > 100 µM | CAKI-1 > 100 µM | KM12 > 100 µM | COLO 205 > 100 µM | HCT-116 88.1 µM | SK-MEL-5 > 100 µM | SNB-19 > 100 µM | RXF 393 99.1 µM | Hs-578T 49.8 µM | PC-3 > 100 µM | U-251 > 100 µM | MDA-MB-435 88.1 µM | LOX IMVI > 100 µM | CCRF-CEM 32.4 µM | DU-145 > 100 µM | RPMI-8226 70 µM | M14 62.5 µM | SF-268 44.1 µM | UACC-257 > 100 µM | SK-MEL-28 > 100 µM | HOP-92 > 100 µM | OVCAR-4 27 µM | MCF7 39.7 µM | SW-620 > 100 µM | A549 > 100 µM | K562 81.7 µM | HCC 2998 > 100 µM | IGROV-1 > 100 µM | MDA-N > 100 µM | ACHN > 100 µM | OVCAR-8 74.5 µM | 786-0 63.4 µM | NCI-H460 > 100 µM | NCI-H522 > 100 µM | MOLT-4 19.8 µM | HL-60 65.6 µM | TK-10 > 100 µM | SK-OV-3 > 100 µM | EKVX > 100 µM | MDA-MB-231 24.8 µM | SR 51.3 µM | HOP-62 > 100 µM | HT-29 > 100 µM | NCI-H23 84.5 µM | T47D 31.1 µM | NCI-H226 > 100 µM | SF-539 > 100 µM | SN12C > 100 µM | SF-295 > 100 µM | UO-31 65 µM | Malme-3M 30.3 µM | OVCAR-3 18.6 µM
38.2 µM: HCT-15

COc1ccc(C2CC(c3ccccc3)=Nc3c(-c4ccccc4)nnn32)cc1 (stereo unspecified)
inactive: OVCAR-5 > 100 µM | SK-MEL-2 44.4 µM | A498 > 100 µM | UACC-62 55.7 µM | CAKI-1 98.4 µM | KM12 46.9 µM | COLO 205 > 100 µM | HCT-116 35.5 µM | SK-MEL-5 9.27 µM | SNB-19 > 100 µM | Hs-578T 51.2 µM | PC-3 72.6 µM | U-251 9.84 µM | MDA-MB-435 77.8 µM | LOX IMVI > 100 µM | CCRF-CEM > 100 µM | DU-145 > 100 µM | RPMI-8226 12.8 µM | M14 > 100 µM | SF-268 > 100 µM | UACC-257 > 100 µM | MCF7 > 100 µM | SW-620 > 100 µM | A549 39.2 µM | K562 > 100 µM | IGROV-1 > 100 µM | MDA-N > 100 µM | ACHN 17 µM | OVCAR-8 37.3 µM | 786-0 > 100 µM | NCI-H460 > 100 µM | NCI-H522 8.22 µM | MOLT-4 > 100 µM | HL-60 > 100 µM | SK-OV-3 > 100 µM | MDA-MB-231 85.1 µM | SR 23.3 µM | HOP-62 96.2 µM | HT-29 > 100 µM | NCI/ADR-RES > 100 µM | NCI-H23 > 100 µM | T47D 10 µM | NCI-H226 > 100 µM | SF-539 85.3 µM | SN12C > 100 µM | SF-295 > 100 µM | UO-31 > 100 µM | OVCAR-3 54.7 µM
9.06 µM: HCT-15
